# Results: patent US20250147039A1, “Compounds for complexation of rare earth elements and/or s-, p-, d- block metals, their coordination compounds, peptide conjugates, method of their preparation and use thereof” (USTAV ORGANICKE CHEMIE A BIOCHEMIE AV CR V.V.I., priority 2021, published 2025)
# What was measured:
# [1] = Formation of 1,5-cz-[Ln(Lig)] from Lig and Ln^III ions (metal dependent click-zip), MOPS/NaOH buffer pH 7.0, analytical HPLC (Charts 1, 2)
# [2] = Formation of 1,5-cz-[M(Lig)] from Lig and M^III ions (metal dependent click-zip) (Charts 4, 5); type: physicochemical; conditions: MOPS/NaOH buffer pH 7.0, TD728, TD827 in 50% i-PrOH; for conversion to 1,5-cz-[M(Lig)], Y^III: TD714 sum of two diastereoisomers
# [3] = after 1 week at 80° C., MOPS/NaOH buffer pH 7.0
# [4] = after 1 hour at 80° C., MOPS/NaOH buffer pH 7.0
# [5] = after 1 week at 80° C., 50% i-PrOH in aq. MOPS/NaOH Buffer pH 7.0
# [6] = after 1 hour at 80° C., 50% i-PrOH in aq. MOPS/NaOH Buffer pH 7.0
smiles,measurement,setting,value
C#Cc1cccc(CN2CCN(CC(N)=O)CCN(Cc3cc(-c4ccccc4)cc(CN=[N+]=[N-])n3)CCN(CC(N)=O)CC2)n1 [TD779],"conversion to 1,5-cz-[Ln(Lig)], Ce^III",[1]; [3],0%
same,"conversion to 1,5-cz-[Ln(Lig)], Ce^III",[1]; [4],0%
same,"conversion to 1,5-cz-[Ln(Lig)], Dy^III",[1]; [3],0%
same,"conversion to 1,5-cz-[Ln(Lig)], Dy^III",[1]; [4],8%
same,"conversion to 1,5-cz-[Ln(Lig)], Er^III",[1]; [3],0%
same,"conversion to 1,5-cz-[Ln(Lig)], Er^III",[1]; [4],12%
same,"conversion to 1,5-cz-[Ln(Lig)], Eu^III",[1]; [3],0%
same,"conversion to 1,5-cz-[Ln(Lig)], Eu^III",[1]; [4],2%
same,"conversion to 1,5-cz-[Ln(Lig)], Gd^III",[1]; [3],0%
same,"conversion to 1,5-cz-[Ln(Lig)], Gd^III",[1]; [4],3%
same,"conversion to 1,5-cz-[Ln(Lig)], Ho^III",[1]; [3],0%
same,"conversion to 1,5-cz-[Ln(Lig)], Ho^III",[1]; [4],10%
same,"conversion to 1,5-cz-[Ln(Lig)], La^III",[1]; [3],0%
same,"conversion to 1,5-cz-[Ln(Lig)], La^III",[1]; [4],0%
same,"conversion to 1,5-cz-[Ln(Lig)], Lu^III",[1]; [3],0%
same,"conversion to 1,5-cz-[Ln(Lig)], Lu^III",[1]; [4],5%
same,"conversion to 1,5-cz-[Ln(Lig)], Nd^III",[1]; [3],0%
same,"conversion to 1,5-cz-[Ln(Lig)], Nd^III",[1]; [4],0%
same,"conversion to 1,5-cz-[Ln(Lig)], Pr^III",[1]; [3],0%
same,"conversion to 1,5-cz-[Ln(Lig)], Pr^III",[1]; [4],0%
same,"conversion to 1,5-cz-[Ln(Lig)], Sm^III",[1]; [3],0%
same,"conversion to 1,5-cz-[Ln(Lig)], Sm^III",[1]; [4],1%
same,"conversion to 1,5-cz-[Ln(Lig)], Tb^III",[1]; [3],0%
same,"conversion to 1,5-cz-[Ln(Lig)], Tb^III",[1]; [4],6%
same,"conversion to 1,5-cz-[Ln(Lig)], Tm^III",[1]; [3],0%
same,"conversion to 1,5-cz-[Ln(Lig)], Tm^III",[1]; [4],9%
same,"conversion to 1,5-cz-[Ln(Lig)], Yb^III",[1]; [3],0%
same,"conversion to 1,5-cz-[Ln(Lig)], Yb^III",[1]; [4],9%
same,"conversion to 1,5-cz-[M(Lig)], Sc^III",[2]; 1 week at 80° C.,0%
same,"conversion to 1,5-cz-[M(Lig)], Y^III",[2]; 1 week at 80° C.,0%
same,"conversion to 1,5-cz-[M(Lig)], Sc^III",[2]; 1 hour at 80° C.,0%
same,"conversion to 1,5-cz-[M(Lig)], Y^III",[2]; 1 hour at 80° C.,4%
C#Cc1cccc(CN2CCN(CCC(=O)O)CCN(Cc3cccc(CN=[N+]=[N-])n3)CCN(CCC(=O)O)CC2)n1 [TD801],"conversion to 1,5-cz-[Ln(Lig)], Ce^III",[1]; [3],0%
same,"conversion to 1,5-cz-[Ln(Lig)], Ce^III",[1]; [4],0%
same,"conversion to 1,5-cz-[Ln(Lig)], Dy^III",[1]; [3],0%
same,"conversion to 1,5-cz-[Ln(Lig)], Dy^III",[1]; [4],0%
same,"conversion to 1,5-cz-[Ln(Lig)], Er^III",[1]; [3],0%
same,"conversion to 1,5-cz-[Ln(Lig)], Er^III",[1]; [4],0%
same,"conversion to 1,5-cz-[Ln(Lig)], Eu^III",[1]; [3],0%
same,"conversion to 1,5-cz-[Ln(Lig)], Eu^III",[1]; [4],0%
same,"conversion to 1,5-cz-[Ln(Lig)], Gd^III",[1]; [3],0%
same,"conversion to 1,5-cz-[Ln(Lig)], Gd^III",[1]; [4],0%
same,"conversion to 1,5-cz-[Ln(Lig)], Ho^III",[1]; [3],0%
same,"conversion to 1,5-cz-[Ln(Lig)], Ho^III",[1]; [4],0%
same,"conversion to 1,5-cz-[Ln(Lig)], La^III",[1]; [3],0%
same,"conversion to 1,5-cz-[Ln(Lig)], La^III",[1]; [4],0%
same,"conversion to 1,5-cz-[Ln(Lig)], Lu^III",[1]; [3],0%
same,"conversion to 1,5-cz-[Ln(Lig)], Lu^III",[1]; [4],0%
same,"conversion to 1,5-cz-[Ln(Lig)], Nd^III",[1]; [3],0%
same,"conversion to 1,5-cz-[Ln(Lig)], Nd^III",[1]; [4],0%
same,"conversion to 1,5-cz-[Ln(Lig)], Pr^III",[1]; [3],0%
same,"conversion to 1,5-cz-[Ln(Lig)], Pr^III",[1]; [4],0%
same,"conversion to 1,5-cz-[Ln(Lig)], Sm^III",[1]; [3],0%
same,"conversion to 1,5-cz-[Ln(Lig)], Sm^III",[1]; [4],0%
same,"conversion to 1,5-cz-[Ln(Lig)], Tb^III",[1]; [3],0%
same,"conversion to 1,5-cz-[Ln(Lig)], Tb^III",[1]; [4],0%
same,"conversion to 1,5-cz-[Ln(Lig)], Tm^III",[1]; [3],0%
same,"conversion to 1,5-cz-[Ln(Lig)], Tm^III",[1]; [4],0%
same,"conversion to 1,5-cz-[Ln(Lig)], Yb^III",[1]; [3],0%
same,"conversion to 1,5-cz-[Ln(Lig)], Yb^III",[1]; [4],0%
same,"conversion to 1,5-cz-[M(Lig)], Sc^III",[2]; 1 week at 80° C.,0%
same,"conversion to 1,5-cz-[M(Lig)], Y^III",[2]; 1 week at 80° C.,0%
same,"conversion to 1,5-cz-[M(Lig)], Sc^III",[2]; 1 hour at 80° C.,0%
same,"conversion to 1,5-cz-[M(Lig)], Y^III",[2]; 1 hour at 80° C.,0%
C#Cc1cccc(CN2CCN(CC(=O)O)CCN(Cc3cc(C#C[Si](C(C)C)(C(C)C)C(C)C)cc(CN=[N+]=[N-])n3)CCN(CC(=O)O)CC2)n1 [TD827],"conversion to 1,5-cz-[Ln(Lig)], Ce^III",[1]; [5],22%
same,"conversion to 1,5-cz-[Ln(Lig)], Ce^III",[1]; [6],2%
same,"conversion to 1,5-cz-[Ln(Lig)], Dy^III",[1]; [5],96%
same,"conversion to 1,5-cz-[Ln(Lig)], Dy^III",[1]; [6],30%
same,"conversion to 1,5-cz-[Ln(Lig)], Er^III",[1]; [5],96%
same,"conversion to 1,5-cz-[Ln(Lig)], Er^III",[1]; [6],56%
same,"conversion to 1,5-cz-[Ln(Lig)], Eu^III",[1]; [5],92%
same,"conversion to 1,5-cz-[Ln(Lig)], Eu^III",[1]; [6],9%
same,"conversion to 1,5-cz-[Ln(Lig)], Gd^III",[1]; [5],93%
same,"conversion to 1,5-cz-[Ln(Lig)], Gd^III",[1]; [6],11%
same,"conversion to 1,5-cz-[Ln(Lig)], Ho^III",[1]; [5],96%
same,"conversion to 1,5-cz-[Ln(Lig)], Ho^III",[1]; [6],43%
same,"conversion to 1,5-cz-[Ln(Lig)], La^III",[1]; [5],46%
same,"conversion to 1,5-cz-[Ln(Lig)], La^III",[1]; [6],1%
same,"conversion to 1,5-cz-[Ln(Lig)], Lu^III",[1]; [5],97%
same,"conversion to 1,5-cz-[Ln(Lig)], Lu^III",[1]; [6],77%
same,"conversion to 1,5-cz-[Ln(Lig)], Nd^III",[1]; [5],84%
same,"conversion to 1,5-cz-[Ln(Lig)], Nd^III",[1]; [6],3%
same,"conversion to 1,5-cz-[Ln(Lig)], Pr^III",[1]; [5],79%
same,"conversion to 1,5-cz-[Ln(Lig)], Pr^III",[1]; [6],2%
same,"conversion to 1,5-cz-[Ln(Lig)], Sm^III",[1]; [5],91%
same,"conversion to 1,5-cz-[Ln(Lig)], Sm^III",[1]; [6],7%
same,"conversion to 1,5-cz-[Ln(Lig)], Tb^III",[1]; [5],95%
same,"conversion to 1,5-cz-[Ln(Lig)], Tb^III",[1]; [6],21%
same,"conversion to 1,5-cz-[Ln(Lig)], Tm^III",[1]; [5],97%
same,"conversion to 1,5-cz-[Ln(Lig)], Tm^III",[1]; [6],68%
same,"conversion to 1,5-cz-[Ln(Lig)], Yb^III",[1]; [5],97%
same,"conversion to 1,5-cz-[Ln(Lig)], Yb^III",[1]; [6],75%
same,"conversion to 1,5-cz-[M(Lig)], Sc^III",[2]; 1 week at 80° C.,55%
same,"conversion to 1,5-cz-[M(Lig)], Y^III",[2]; 1 week at 80° C.,96%
same,"conversion to 1,5-cz-[M(Lig)], Sc^III",[2]; 1 hour at 80° C.,2%
same,"conversion to 1,5-cz-[M(Lig)], Y^III",[2]; 1 hour at 80° C.,42%
